Experimental data reported in patent US6506901B2, “Substituted 2-(S)-hydroxy-3-(piperidin-4-yl-methylamino)-propyl ethers and substituted 2-aryl-2-(R)-hydroxy-1-(piperidin-4-yl-methyl)-ethylamine β-3 adrenergic receptor agonists” (Wyeth, priority 2000, dated 2003).
Structures can show the parent of a compound that is named as a salt.

Columns and labels:
β3 human transgenic mice = experiment: Thermogenesis (Oxymax indirect calorimeter) in β3 transgenic (Tg) mice; format: in vivo, mice (FVB); conditions: percent increase in thermogenesis over baseline; for change in vivo at 10 mg/kg: Mus musculus, ip, IP 10 mg/kg
Excerpt: Evaluation in β3 Knockout(KO) and β3 Transgenic(Tg) Mice: The ability of compounds of this invention to treat or inhibit disorders related to insulin resistance or hyperglycemia was also confirmed with representative compounds of this invention in an in vivo standard pharmacological test procedure which compared thermogenesis in transgenic mice (Tg mice) and β3-knockout mice (KO mice).
β3-Adrenergic receptor knockout mice and β3 human transgenic mice are created on an inbred FVB background (Susulic, V. S., et.al., J. Biol. Chem., 1995, 270 (49), 29483-29492). Female FVB β3 transgenic and β3 knockout mice were used to determine in vivo activity and selectivity of β3 agonists. […] These compounds were also selective in being 100-fold less responsive and partial agonists when tested in β1 and β2 transfected CHO cells. Compounds were tested for increased thermogenesis using the Oxymax indirect calorimeter (Columbus Instruments, Columbus, Ohio). Fed animals were placed in chambers for 3 hours to obtain baseline O2 and CO2 values. Eight fed mice were weighed in pairs and placed in 4 chambers, two per chamber. The relative gas content of each chamber was sampled and recorded at 10 to 12 minute intervals. For each sample, energy expenditure values were calculated by the Oxymax and expressed as kcal/hr. After 3 hours of baseline measurement, the mice were removed, treated and replaced in the chambers. The β3 agonists were injected at doses between 0.1 and 20 mg/kg i.p. and between 1.0 and 30 mg/kg for oral administration. Compounds in 10 mM or 10 mg/ml DMSO solutions were suspended in 0.5% methylcellulose: 0.1% tween-80 and injected i.p. or administered by oral gavage. Some compounds were suspended in 5.0% tween-80 for oral administration. Post-treatment kcal/hr values were taken between 40 minutes and 2.5 hours later. The 6 to 10 sample sections of the pre-treatment and post-treatment periods, which appear to best represent stable resting thermogenesis, were selected. Each of these sample values was corrected for body weight and used such that each pair of mice serves as its own baseline for both T test and percent increase in thermogenesis calculations. An ANOVA and a one sided T test (H1: Post>Pre) are performed using the SAS software modified to down weight extreme values. In a separate set of calculations, values that appear to be too high to represent resting thermogenesis are discarded (activity monitor sampling associated spikes in thermogenesis with ambulatory activity). The mean baseline value for each chamber is subtracted from mean post-treatment value for that chamber. This baseline-subtracted value is divided by the mean baseline value and multiplied by 100 to obtain a percent increase in thermogenesis for each chamber. The combined mean percent increase, standard deviation, and standard error of the mean for each chamber is calculated. Compounds were considered active if they were able to produce a statistically significant 15% increase in thermogenesis in β3 transgenic mice and no significant increase in β3 knockout mice.

human β3 receptors = molecular target: T1, human β3 receptors (Homo sapiens, UniProt P13945); experiment: cAMP response (SPA) in CHO cells expressing cloned human β3 adrenergic receptor; format: cell-based; conditions: for EC50: CHO cells expressing human β3 receptor, cAMP, 30 min incubation, 10^−9 M to 10^−5 M; for IA(β3): maximal response compared to the maximal response of isoproterenol at 10^−5 M
T1 construct: Full length β3 AR clones (402 amino acids) containing the last 6 amino acids of hβ3—AR; expressed in transfected cells; host or cells: CHO cells
In short: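 CHO cells transfected with cloned human β3-AR were incubated with compound at 37° C for 30 min, stopped with 0.2N HCl and neutralized. cAMP was measured by SPA. Activity is expressed as per cent of the maximal isoproterenol (10^−5 M) response.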

T1 sequence (P13945 whole entry): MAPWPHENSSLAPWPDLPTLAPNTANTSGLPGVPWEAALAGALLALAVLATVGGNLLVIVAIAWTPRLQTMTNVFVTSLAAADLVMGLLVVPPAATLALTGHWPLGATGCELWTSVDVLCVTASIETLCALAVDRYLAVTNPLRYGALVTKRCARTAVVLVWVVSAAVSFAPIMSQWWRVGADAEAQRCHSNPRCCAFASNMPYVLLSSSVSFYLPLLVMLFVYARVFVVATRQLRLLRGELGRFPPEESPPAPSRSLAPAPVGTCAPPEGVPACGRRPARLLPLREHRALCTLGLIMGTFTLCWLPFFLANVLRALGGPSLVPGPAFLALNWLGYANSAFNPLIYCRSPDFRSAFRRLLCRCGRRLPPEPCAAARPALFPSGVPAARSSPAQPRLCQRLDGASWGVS

## O=C(Nc1ccccc1)Nc1ccc(S(=O)(=O)N2CCC(CNC[C@H](O)COc3ccc(O)cc3)CC2)cc1 [Example 63, 1-[4-(4-{[(2S)-2-Hydroxy-3-(4-hydroxy-phenoxy)-propylamino]-methyl}-piperidine-1-sulfonyl)-phenyl]-3-phenyl-urea]
β3 human transgenic mice; mouse type homo
  change in vivo at 10 mg/kg: 3%

## O[C@@H](CNCC1CCN(CCC(F)(F)F)CC1)COc1ccc(Br)c2[nH]c3ccccc3c12 [Example 16, (2S)-1-(1-Bromo-9H-carbazol-4-yloxy)-3-{[1-(3,3,3-trifluoro-propyl)-piperidin-4-ylmethyl]-amino}-propan-2-ol]
other
  melting point: 79 °C

## O/N=C1\c2ccccc2-c2c(OC[C@@H](O)CNCC3CCN(c4ccnc5cc(C(F)(F)F)ccc45)CC3)cccc21 (as salt: hydrochloride) [Example 4, 4-((2S)-2-Hydroxy-3-{[1-(7-trifluoromethyl-quinolin-4-yl)-piperidin-4-ylmethyl]-amino}-propoxy)-fluoren-9-one Oxime]
other
  melting point: 171 °C

## O=C(O)c1cccc(NC(=O)N2CCC(CNC[C@H](O)COc3cccc4[nH]c5ccccc5c34)CC2)c1 [Example 51, 3-[(4-{[(2S)-3-(9H-Carbazol-4-yloxy)-2-hydroxy-propylamino]-methyl}-piperidine-1-carbonyl)-amino]-benzoic Acid]
other
  melting point: 238 to 240 °C (dec.)

## O=C(Nc1ccc(S(=O)(=O)N2CCC(CNC[C@H](O)COc3ccc(O)cc3)CC2)cc1)Nc1ccccn1 [Example 66, 1-[4-(4-{[(2S)-2-Hydroxy-3-(4-hydroxy-phenoxy)-proplamino]-methyl}-piperidine-1-sulfonyl)-phenyl]-3-pyridin-2-yl-urea]
β3 human transgenic mice; mouse type homo
  change in vivo at 10 mg/kg: 4%
other
  melting point: 189 °C

## CCCCCCCCNC(=O)Nc1ccc(S(=O)(=O)N2CCC(CNC[C@H](O)COc3ccc(O)cc3)CC2)cc1 [Example 69, 1-[4-(4-{[(2S)-2-Hydroxy-3-(4-hydroxy-phenoxy)-propylamino]-methyl}-piperidine-1-sulfonyl)-phenyl]-3-octyl-urea]
β3 human transgenic mice; mouse type hetero
  change in vivo at 10 mg/kg: 24%
β3 human transgenic mice; mouse type homo
  change in vivo at 10 mg/kg: 24%
β3 human transgenic mice; mouse type hetero, gavage 30 mg/kg
  Thermogenesis, Transgenic Mice, Gavage %: 14%

## O=S(=O)(c1ccc(-n2cccn2)cc1)N1CCC(CNC[C@H](O)COc2ccc(O)cc2)CC1 [Example 93, 4-(2-Hydroxy-3-{[1-(4-pyrazol-1-yl-benzenesulfonyl)-piperidin-4-ylmethyl]-amino}-propoxy)-phenol]
other
  melting point: 169 to 171 °C
Human β3 receptors
  EC50: 347 nM
  IA(β3): 0.99

## OCCCCCCCCCCCCN1CCC(CNC[C@H](O)COc2cccc3[nH]c4ccccc4c23)CC1 [Example 30, 12-(4-{[(2S)-3-(9H-Carbazol-4-yloxy)-2-hydroxy-propylamino]-methyl}-piperidin-1-yl)-dodecan-1-ol]
other
  melting point: 110 °C
Human β3 receptors
  EC50: 1240 nM
  IA(β3): 0.53

## CS(=O)(=O)Nc1cc(OC[C@@H](O)CNCC2CCN(S(=O)(=O)c3ccc(NC(=O)NCc4cc(F)ccc4F)cc3)CC2)ccc1O [Example 79, N-(5-{(2S)-3-[(1-{4-[3-(2,5-Difluoro-benzyl)-ureido]-benzenesulfonyl}-piperidin-4-ylmethyl)-amino]-2-hydroxy-propoxy}-2-hydroxy-phenyl)-methanesulfonamide]
β3 human transgenic mice; mouse type homo
  change in vivo at 10 mg/kg: 10%

## O[C@@H](CNCC1CCN(c2cc(C(F)(F)F)ccn2)CC1)COc1cccc2[nH]c3ccccc3c12 [Example 5, (2S)-1-(9H-Carbazol-4-yloxy)-3-[(4′-trifluoromethyl-3,4,5,6-tetrahydro-2H-[1,2′]bipyridinyl-4-ylmethyl)-amino]-propan-2-ol]
other
  melting point: 137 to 138 °C

## O=C(NCc1cc(F)ccc1F)Nc1ccc(S(=O)(=O)N2CCC(CNC[C@H](O)COc3ccc(O)cc3)CC2)cc1 [Example 77, 1-(2,5-Difluoro-benzyl)-3-[4-(4-{[(2S)-2-hydroxy-3-(4-hydroxy-phenoxy)-propylamino]-methyl}-piperidine-1-sulfonyl)-phenyl]-urea]
β3 human transgenic mice; mouse type homo
  change in vivo at 10 mg/kg: 4%

## O=C(NCCCc1cccs1)Nc1ccc(S(=O)(=O)N2CCC(CNC[C@H](O)COc3ccc(O)cc3)CC2)cc1 [Example 75, 1-[4-(4-1{[(2S)-2-Hydroxy-3-(4-hydroxy-phenoxy)-propylamino]-methyl}-piperidine-1-sulfonyl)-phenyl]-3-(3-thiophen-2-yl-propyl)-urea]
β3 human transgenic mice; mouse type homo
  change in vivo at 10 mg/kg: 5%

## CCCCCCNC(=O)Nc1ccc(S(=O)(=O)N2CCC(CNC[C@H](O)COc3cccc4[nH]c5ccccc5c34)CC2)cc1 [Example 58, 1-[4-(4-{[(2S)-3-(9H-Carbazol-4-yloxy)-2-hydroxy-propylamino]-methyl}-piperidine-1-sulfonyl)-phenyl]-3-hexyl-urea]
β3 human transgenic mice; mouse type hetero
  change in vivo at 10 mg/kg: -3%

## CCCCCCCCNC(=O)Nc1ccc(S(=O)(=O)N2CCC(CNC[C@H](O)COc3ccc(O)c4c3CCC(=O)N4)CC2)cc1 [Example 74, 1-[4-(4-{[(2S)-2-Hydroxy-3-(8-hydroxy-2-oxo-1,2,3,4-tetrahydro-quinolin-5-yloxy)-propylamino]-methyl}-piperidine-1-sulfonyl)-phenyl]-3-octyl-urea]
β3 human transgenic mice; mouse type homo
  change in vivo at 10 mg/kg: 18%

## CCCCCCNC(=O)Nc1ccc(S(=O)(=O)N2CCC(CNC[C@H](O)COc3ccc(O)cc3)CC2)cc1 [Example 59, 1-Hexyl-3-[4-(4-{[(2S)-2-hydroa-3-(4-hydroxy-phenoxy)-propylamino]-methyl}-piperidine-1-sulfonyl)-phenyl]-urea]
β3 human transgenic mice; mouse type homo
  change in vivo at 10 mg/kg: 5%

## CS(=O)(=O)Nc1cc([C@@H](O)CNCC2CCN(c3ccc(S(=O)(=O)N4CCCCC4)cc3)CC2)ccc1O [Example 106, (R)-N-{2-Hydroxy-5-[1-hydroxy-2-({1-[4-(piperidine-1-sulfonyl)-phenyl]-piperidin-4-ylmethyl}-amino)-ethyl]-phenyl}-methanesulfonamide]
Human β3 receptors
  EC50: 1 nM
  IA(β3): 0.97

## O[C@@H](CNCC1CCN(CCC(F)(F)F)CC1)COc1cccc2[nH]c3ccccc3c12 [Example 10, (2S)-1-(9H-Carbazol-4-yloxy)-3-{[1-(3,3,3-trifluoro-propyl)-piperidin-4-ylmethyl]-amino}-propan-2-ol]
β3 human transgenic mice; mouse type hetero
  change in vivo at 10 mg/kg: -15%

## CCCCCCCCNC(=O)Nc1ccc(S(=O)(=O)N2CCC(CNCC(O)COc3cccc4[nH]c(C(N)=O)cc34)CC2)cc1 (centres unmarked) [Example 71, 4-[2-Hydroxy-3-({1-[4-(3-octyl-ureide)-benzenesulfonyl]-piperidin-4-ylmethyl}-amino)-propoxy]-1H-indole-2-carboxylic Acid Amide]
Human β3 receptors
  EC50: 96 nM
  IA(β3): 0.6

## OC1c2ccccc2-c2c(OC[C@@H](O)CNCC3CCN(CCC(F)(F)F)CC3)cccc21 (stereo partly drawn) [Example 14, 4-((2S)-2-Hydroxy-3-{[1-(3,3,3-trifluoro-propyl)-piperidin-4-ylmethyl]-amino}-propoxy)-9H-fluoren-9-ol]
Human β3 receptors
  EC50: 219 nM
  IA(β3): 0.75
